What is called solubility (kinetic) is the concentration staying in solution when a stock, usually in DMSO, is diluted into the medium.

Converted amounts (≈) assume the structure as drawn.

For this data set the following is noted: buffer; pH 7.4; 200.0 µM.
With `CCOC(=O)CNC(=O)C12CC3CC(CC(C3)C1)C2`, the solubility (kinetic) turned out to be 37.8 µg/mL (≈ 142 µM).
Molecule `O=C(OCC(=O)N1CCc2ccccc21)c1ccc(Br)o1` gave a kinetic solubility of 3.7 µg/mL (≈ 10.6 µM).
The same measure for `Cc1cc(NC(=O)COC(=O)C2CC2)ccc1Br`: above 46.8 µg/mL; for `Cc1ccccc1C1CCCN(Cc2nc(CC3CC3)no2)C1` (stereo unspecified): 24.1 µg/mL (≈ 77.4 µM).
`Nc1c(C(=O)N2CCCC2)sc2nc(-c3ccccc3)ccc12`: the kinetic solubility stood at 2.1 µg/mL (≈ 6.49 µM).
Regarding `Cc1ccc(Br)c(NS(=O)(=O)c2cccc(C(=O)N3CCNC(=O)C3)c2)c1`, the kinetic solubility is above 67.8 µg/mL.
In the case of `CC(NC(=O)/C(C#N)=C/c1ccco1)c1ccccc1` (stereo unspecified), the kinetic solubility is 38.8 µg/mL (≈ 146 µM).
As for `Cc1ccc(S(=O)(=O)N2CCC[C@H]2C(=O)Nc2ccc(F)cc2C)cc1`, the solubility (kinetic) was above 56.5 µg/mL.
In turn, `Cc1ccc(-c2csc3ncnc(SCC(=O)O)c23)cc1` registered a solubility (kinetic) above 47.5 µg/mL.
For `O=C(CCS(=O)(=O)c1ccccc1Cl)NC1CCCCCC1` the value was above 51.6 µg/mL.
For `O=S(=O)(c1ccc(Cl)cc1)N1CCN2CCCC2C1` (stereo unspecified) the value was above 45.1 µg/mL; for `O=C(Nc1nc2ccccc2s1)NC1CCCCC1`, 1.6 µg/mL (≈ 5.81 µM).
For `O=C(COC(=O)c1ccc(S(=O)(=O)N2CCOCC2)cc1)Nc1ccccc1OC(F)F` the value was 4.8 µg/mL (≈ 10.2 µM).
As to `CC1CCCC(NC(=O)CCC(=O)c2ccc(F)cc2)C1C` (stereo unspecified), the solubility (kinetic) stood at 33.8 µg/mL (≈ 111 µM).
For `COc1ccc(/C=C/C(=O)NCCCN2CCOCC2)cc1` the value was 43.8 µg/mL (≈ 144 µM).
Molecule `Cc1ccc(Cl)cc1NC(=O)C1CCCN(S(C)(=O)=O)C1` (stereo unspecified) had a kinetic solubility of 5.8 µg/mL (≈ 17.5 µM).
For `Cc1ccc(S(=O)(=O)N2CCN(C(=O)CN3C(=O)NC(C)(c4ccc(Cl)cc4)C3=O)CC2)c(C)c1` (stereo unspecified), the solubility (kinetic) worked out at 3.3 µg/mL (≈ 6.36 µM).
The same measure for `Cc1cc(/C=C2\NC(=O)NC2=O)c(C)n1-c1cccnc1`: 40.2 µg/mL (≈ 142 µM).
The molecule `Cc1nc(SCC(=O)O)c(C#N)c(-c2ccco2)c1C(=O)N(C)C` registered a solubility (kinetic) above 51.8 µg/mL.
For `Cc1ccc(NC(=S)N2CCc3[nH]c4ccccc4c3C2)cc1` the value was 0.8 µg/mL (≈ 2.49 µM); for `O=C(NCCNC(=O)c1ccccc1F)c1ccccn1`, above 43.1 µg/mL.
The same measure for `O=C(COC(=O)Cc1ccsc1)Nc1cccc(Cl)c1`: above 46.5 µg/mL; for `Cn1cc(C(=O)NCC(=O)Nc2ccccc2Br)cn1`: above 50.6 µg/mL.
The same measure for `CCOc1ccccc1NC(=O)c1ccc2ccccc2c1`: below 0.6 µg/mL; for `CSc1ccccc1C(=O)OCC(=O)N1CCCCCC1`: above 46.1 µg/mL.
Consider `CC(C)(C)NC(=O)C(=O)NNC(=O)c1cccc([N+](=O)[O-])c1`, for which the solubility (kinetic) is above 46.2 µg/mL.
The same measure for `Nc1c(Cl)ncnc1NCc1ccccc1`: 32.6 µg/mL (≈ 139 µM); for `Cc1ccc(C(=O)Nc2ccc(NC(=O)c3ccc(C)o3)cc2)o1`: 1.7 µg/mL (≈ 5.24 µM); for `Cc1cccn2c(=O)c3cc(C(=O)NC4CCCC4)sc3nc12`: 4.9 µg/mL (≈ 15 µM).
`Nc1ccccc1SCCS(=O)(=O)c1ccc(Cl)cc1` displayed a kinetic solubility of 2.2 µg/mL (≈ 6.71 µM).
Molecule `CCN(CC)C(=O)c1c(C)[nH]c(=S)c(C#N)c1-c1ccco1` registered a solubility (kinetic) above 47.3 µg/mL.
The same measure for `ClCC1=Nc2ccccc2Cc2ccccc21`: 4.8 µg/mL (≈ 19.9 µM); for `COC(CNC(=O)CN1CCN(Cc2ccccc2F)C1=O)OC`: above 50.9 µg/mL.
The same measure for `COc1ccccc1NC(=O)c1cc(Cl)nnc1Cl`: above 44.7 µg/mL.
The same measure for `C=CCn1c(NCc2ccccc2O)nc2ccccc21`: 2.4 µg/mL (≈ 8.59 µM); for `Cc1cccc(C(=O)NCC(=O)N2CC(=O)Nc3ccccc32)c1`: above 48.5 µg/mL; for `CC(NC(=O)CCl)c1ccccc1Br` (stereo unspecified): above 41.5 µg/mL.
Consider `CCN(C(=O)COC(=O)c1cnccn1)c1cccc2ccccc12`, for which the kinetic solubility is above 50.3 µg/mL.
The molecule `O=C(COc1ccccc1Cl)Nc1cccnc1` showed a kinetic solubility of 33.7 µg/mL (≈ 128 µM).
For `Cc1cccc(NC(=O)c2ccccc2NC(=O)c2ccco2)c1`, the solubility (kinetic) was determined as 0.5 µg/mL (≈ 1.56 µM).
Molecule `Cl.Fc1ccc(CN2C3=NCCN3c3ccccc32)cc1` gave a solubility (kinetic) of 43.2 µg/mL.
On to `Nn1c(-c2ccccc2)nc2ccccc2c1=O`, for which the solubility (kinetic) was above 35.6 µg/mL.
The molecule `O=C(NC(=S)Nc1ccccc1Br)C1CCC1` displayed a solubility (kinetic) of 7.8 µg/mL (≈ 24.9 µM).
The same measure for `Cc1cnc(C(=O)OCC(=O)Nc2cc(S(=O)(=O)N3CCOCC3)ccc2Cl)cn1`: above 68.2 µg/mL; for `O=C(NCc1cccnc1)NC(=O)c1ccc(Cl)cc1`: 3.8 µg/mL (≈ 13.1 µM); for `O=[N+]([O-])c1ccc(N2CCN(c3ccc(F)cc3)CC2)cc1`: 0.3 µg/mL (≈ 0.996 µM).
For `CCN(CC)S(=O)(=O)c1cccc(NC(=O)COC(=O)c2cncc(Br)c2)c1` the value was 40.3 µg/mL (≈ 85.7 µM); for `CNc1cc(=O)n(C)c(=O)n1-c1ccccc1`, above 34.7 µg/mL; for `Cc1ccc(NC(=O)COC(=O)C2CC(=O)N(Cc3ccccc3)C2)cc1F` (stereo unspecified), 46.8 µg/mL (≈ 122 µM).
For `Cc1ccc(S(=O)(=O)N2C(=O)c3cccc4cccc2c34)cc1` the value was 3.7 µg/mL (≈ 11.4 µM).
In turn, `COC(=O)c1cc2ccccc2n1S(=O)(=O)c1ccccc1` showed a solubility (kinetic) below 0.7 µg/mL.
